Source: patent US20240327351A1, “AMIDE AND ETHER SUBSTITUTED N-(1H-INDOL-7-YL)BENZENESULFONAMIDES AND USES THEREOF” (TRIANA BIOMEDICINES, INC., priority 2021, published 2024)

Legend:
[1] = target: DCAF15/RBM39 (Homo sapiens, UniProt Q14498+Q66K64); test: AlphaLISA compound-induced DCAF15-RBM39 ternary complex formation; format: binding; conditions: His-tagged DCAF15 complex and biotin-carrying RBM39
Summary of the method: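 Compounds, serially diluted 3-fold from 2 mM DMSO stocks, were incubated 1 h at room temperature with His-tagged DCAF15 complex and biotinylated RBM39 (mixture at 408 nM each, 2.04×). The buffer was 50 mM HEPES pH 7.5, 100 mM NaCl, 2 mM MgCl2, 2 mM TCEP. Ni-chelate acceptor and streptavidin donor beads were added sequentially (1–2 h each), and the AlphaLISA signal was titrated.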

[2] = target: DCAF15 (Homo sapiens, UniProt Q66K64); test: HTRF competition assay, binary interaction between compounds and DCAF15; format: binding; conditions: competition with Alexa Fluor 647 tracer, His-tagged DCAF15 complex
Summary of the method: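 Compounds, 3-fold serially diluted in DMSO, competed with an Alexa Fluor 647 tracer (612 nM, 2.04× stock) for His-tagged DCAF15 complex (32 nM, 4× stock) premixed 15 min with anti-6His-Eu cryptate. Buffer was 25 mM HEPES pH 7.5, 100 mM NaCl, 0.5 mM TCEP. After 1 h at RT, the 615/666 nm ratio gave titration curves.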

| Structure (SMILES) | EC50 [1] | IC50 [2] |
| --- | --- | --- |
| CN1CCN(CCCOc2cccc(S(=O)(=O)Nc3ccc(Cl)c4c(Cl)c[nH]c34)c2)CC1 [Compound 104] | < 1 µM | 10 to 100 µM |
| CC[C@H](NC(=O)c1ccc(S(=O)(=O)Nc2ccc(Cl)c3c(Cl)c[nH]c23)c(F)c1)c1ccc2c(c1)OCCO2 [Compound 211] | 1 to 10 µM | 1 to 10 µM |
| O=C(OCc1ccccc1)N1C[C@@H]2[C@@H](COc3ccc(S(=O)(=O)Nc4ccc(Cl)c5c(Cl)c[nH]c45)cc3)[C@@H]2C1 [Compound 50] | > 100 µM | > 100 µM |
| N[C@@H]1CCC[C@@H](Oc2cccc(S(=O)(=O)Nc3ccc(Cl)c4c(Cl)c[nH]c34)c2)C1 [Compound 6] | < 1 µM | 10 to 100 µM |
| CCOc1cc(N2CCC[C@H](COc3cccc(S(=O)(=O)Nc4ccc(Cl)c5c(Cl)c[nH]c45)c3)C2)ncn1 [Compound 43] | 1 to 10 µM | > 100 µM |
| CCOc1cc(N2CCC[C@H](COc3ccc(S(=O)(=O)Nc4ccc(Cl)c5c(Cl)c[nH]c45)cc3)C2)ncn1 [Compound 44] | 1 to 10 µM | > 100 µM |
| Cc1cc(CNC(=O)c2ccc(S(=O)(=O)Nc3ccc(Cl)c4c(Cl)c[nH]c34)c(F)c2)nn1C [Compound 175] | < 1 µM | 1 to 10 µM |
| Cc1ccnc(CNC(=O)c2ccc(S(=O)(=O)Nc3ccc(Cl)c4c(Cl)c[nH]c34)c(F)c2)c1 [Compound 179] | < 1 µM | 1 to 10 µM |
| O=C(c1ccc(S(=O)(=O)Nc2ccc(Cl)c3c(Cl)c[nH]c23)c(F)c1)N1CCc2[nH]c(-c3ccccc3)nc2C1 [Compound 227] | 1 to 10 µM | 1 to 10 µM |
| CN1CC(CCNC(=O)c2ccc(S(=O)(=O)Nc3ccc(Cl)c4c(Cl)c[nH]c34)c(F)c2)C1 [Compound 193] | < 1 µM | 1 to 10 µM |
| CC(C)(C)OC(=O)N1CCC2(CC1)CN(C(=O)c1ccc(S(=O)(=O)Nc3ccc(Cl)c4c(Cl)c[nH]c34)c(F)c1)CCO2 [Compound 225] | 1 to 10 µM | 1 to 10 µM |
| O=S(=O)(Nc1ccc(Cl)c2c(Cl)c[nH]c12)c1cccc(O[C@H]2CC[C@H](N3CCOCC3)CC2)c1 [Compound 16] | < 1 µM | 1 to 10 µM |
| CC(C)(C)OC(=O)NC1(CNC(=O)c2cccc(S(=O)(=O)Nc3ccc(Cl)c4c(Cl)c[nH]c34)c2F)CC1 [Compound 162] | 1 to 10 µM | 1 to 10 µM |
| CNC(=O)c1cccc(S(=O)(=O)Nc2ccc(Cl)c3c(Cl)c[nH]c23)c1F [Compound 236] | < 1 µM | 1 to 10 µM |
| O=S(=O)(Nc1ccc(Cl)c2c(Cl)c[nH]c12)c1cccc(OC2CCC3(CC2)CNC3)c1 [Compound 26] | < 1 µM | 10 to 100 µM |
| Cc1nc2c(n1C)CCN(C(=O)c1ccc(S(=O)(=O)Nc3ccc(Cl)c4c(Cl)c[nH]c34)c(F)c1)C2 [Compound 229] | < 1 µM | < 1 µM |
| O=C(NCC1CCN(CCCc2ccccc2)CC1)c1ccc(S(=O)(=O)Nc2ccc(Cl)c3c(Cl)c[nH]c23)c(F)c1 [Compound 167] | < 1 µM | < 1 µM |
| O=C(NCCOCC1CC1)c1ccc(S(=O)(=O)Nc2ccc(Cl)c3c(Cl)c[nH]c23)c(F)c1 [Compound 187] | < 1 µM | 1 to 10 µM |
| O=C(c1cccc(S(=O)(=O)Nc2ccc(Cl)c3c(Cl)c[nH]c23)c1F)N1CC(N2CCc3ccccc32)C1 [Compound 214] | 1 to 10 µM | 1 to 10 µM |
| O=C(NCCCOCc1ccccc1)c1ccc(S(=O)(=O)Nc2ccc(Cl)c3c(Cl)c[nH]c23)c(F)c1 [Compound 205] | < 1 µM | > 100 µM |
| O=C(OCc1ccccc1)N1C[C@@H]2[C@@H](COc3cccc(S(=O)(=O)Nc4ccc(Cl)c5c(Cl)c[nH]c45)c3)[C@@H]2C1 [Compound 49] | 1 to 10 µM | > 100 µM |
| CCS(=O)(=O)CCNC(=O)c1ccc(S(=O)(=O)Nc2ccc(Cl)c3c(Cl)c[nH]c23)c(F)c1 [Compound 191] | < 1 µM | < 1 µM |
| CN(C)C(=O)c1ccc(CCNC(=O)c2cccc(S(=O)(=O)Nc3ccc(Cl)c4c(Cl)c[nH]c34)c2F)cc1 [Compound 194] | 1 to 10 µM | 1 to 10 µM |
| O=C(N[C@@H]1CCC[C@@H](Oc2ccc(S(=O)(=O)Nc3ccc(Cl)c4c(Cl)c[nH]c34)cc2)C1)OCc1ccccc1 [Compound 13] | > 100 µM | > 100 µM |
| O=C(NCCc1ccccn1)c1ccc(S(=O)(=O)Nc2ccc(Cl)c3c(Cl)c[nH]c23)c(F)c1 [Compound 201] | < 1 µM | 1 to 10 µM |
| O=C(N[C@H]1CCCCNC1=O)c1ccc(S(=O)(=O)Nc2ccc(Cl)c3c(Cl)c[nH]c23)c(F)c1 [Compound 161] | < 1 µM | < 1 µM |
| CC(C)C(=O)Nc1cccc(CNC(=O)c2ccc(S(=O)(=O)Nc3ccc(Cl)c4c(Cl)c[nH]c34)c(F)c2)c1 [Compound 169] | 1 to 10 µM | 1 to 10 µM |
| CC1(CCOc2cccc(S(=O)(=O)Nc3ccc(Cl)c4c(Cl)c[nH]c34)c2)CCNCC1 [Compound 74] | < 1 µM | 10 to 100 µM |
| NC(=O)c1cc(Cl)cc(S(=O)(=O)Nc2ccc(Cl)c3c(Cl)c[nH]c23)c1 [Compound 235] | 1 to 10 µM | 1 to 10 µM |
| O=C(NCCOC1CCS(=O)(=O)CC1)c1cccc(S(=O)(=O)Nc2ccc(Cl)c3c(Cl)c[nH]c23)c1F [Compound 188] | < 1 µM | 1 to 10 µM |

Now from value to compound:

| EC50 [1] | IC50 [2] | Structure (SMILES) |
| --- | --- | --- |
| 1 to 10 µM | 1 to 10 µM | O=S(=O)(Nc1ccc(Cl)c2c(Cl)c[nH]c12)c1ccc(OC2CCC3(CC2)CNC3)cc1 [Compound 27] |
| < 1 µM | > 100 µM | Cn1nnc2cc(COc3ccc(S(=O)(=O)Nc4ccc(Cl)c5c(Cl)c[nH]c45)cc3)ccc21 [Compound 68] |
| < 1 µM | 1 to 10 µM | O=S(=O)(Nc1ccc(Cl)c2c(Cl)c[nH]c12)c1ccc(OCCC[C@@H]2CCCN2)cc1 [Compound 97] |
| 1 to 10 µM | > 100 µM | O=S(=O)(Nc1ccc(Cl)c2c(Cl)c[nH]c12)c1ccc(Oc2ccc(F)cc2)c(Br)c1 [Compound 234] |
| < 1 µM | > 100 µM | O=S(=O)(Nc1ccc(Cl)c2c(Cl)c[nH]c12)c1cccc(OCCC[C@@H]2CCCN2)c1 [Compound 96] |
| < 1 µM | 1 to 10 µM | O=S(=O)(Nc1ccc(Cl)c2c(Cl)c[nH]c12)c1ccc(OCCCC2CCNCC2)cc1 [Compound 99] |
| 1 to 10 µM | > 100 µM | O=C(NCCCc1ccc(Cl)cc1)c1ccc(S(=O)(=O)Nc2ccc(Cl)c3c(Cl)c[nH]c23)c(F)c1 [Compound 209] |
| < 1 µM | 1 to 10 µM | CN1CC2(CC(Oc3ccc(S(=O)(=O)Nc4ccc(Cl)c5c(Cl)c[nH]c45)cc3)C2)C1 [Compound 24, N-(3,4-dichloro-1H-indol-7-yl)-4-((2-methyl-2-azaspiro[3.3]heptan-6-yl)oxy)benzenesulfonamide] |
| > 100 µM | > 100 µM | O=C(NCCCc1ccc(Cl)cc1)c1cccc(S(=O)(=O)Nc2ccc(Cl)c3c(Cl)c[nH]c23)c1F [Compound 208] |
| > 100 µM | > 100 µM | O=S(=O)(Nc1ccc(Cl)c2c(Cl)c[nH]c12)c1cccc(OCCCc2ccc3c(c2)OCO3)c1 [Compound 111] |
| > 100 µM | > 100 µM | O=S(=O)(Nc1ccc(Cl)c2c(Cl)c[nH]c12)c1ccc(O[C@H]2CC[C@H](OCc3ccccc3)CC2)cc1 [Compound 19] |
| 1 to 10 µM | 1 to 10 µM | Cc1ccccc1Oc1ccccc1CNC(=O)c1cccc(S(=O)(=O)Nc2ccc(Cl)c3c(Cl)c[nH]c23)c1F [Compound 172] |
| > 100 µM | > 100 µM | Cc1nc(-c2ccc(COc3ccc(S(=O)(=O)Nc4ccc(Cl)c5c(Cl)c[nH]c45)cc3)cc2)no1 [Compound 64] |
| 1 to 10 µM | 1 to 10 µM | CC(C)CCOc1ccc(S(=O)(=O)Nc2ccc(Cl)c3c(Cl)c[nH]c23)cc1 [Compound 230] |
| 1 to 10 µM | 10 to 100 µM | CNC(=O)c1ccc(F)c(S(=O)(=O)Nc2ccc(Cl)c3c(Cl)c[nH]c23)c1 [Compound 237] |
| 10 to 100 µM | 10 to 100 µM | CC(C)c1cc(S(=O)(=O)Nc2ccc(Cl)c3c(Cl)c[nH]c23)ccc1OCc1ccccc1 [Compound 233] |
| 10 to 100 µM | > 100 µM | O=S(=O)(Nc1ccc(Cl)c2c(Cl)c[nH]c12)c1ccc(Oc2ccc(Br)cc2)cc1 [Compound 35] |
